Where a SMILES comes first, the peptide text is derived from it.
What was measured:
NAALADase [1] = molecular target: NAALADase (Rattus norvegicus, UniProt P70627); test: In vitro assay of NAALADase activity ([3H]Glu liberated from [3H]NAAG, synaptosomal protein); format: biochemical; details: compared with 2-(phosphonomethyl)pentanedioic acid
Procedure: Substrate and product were resolved by anion-exchange liquid chromatography. […] Quisqualate (100 μM) was included in parallel assay tubes to confirm the specificity of the measurements.

cortical cell cultures = test: In vitro toxicity of NAAG (LDH release); format: cell-based, rats; details: NAAG 3 μM for 20 minutes
Procedure: Experiments are performed after 21 days in cultures.
At the end of exposure, the cells are washed once with HEPES buffered saline solution and then replaced with serum free modified Earle's basal medium. The cultures are then returned to the CO2 incubator for 24 hour recovery.
This control measurement is subtracted from each experimental point.

NAALADase [2] = molecular target: NAALADase (Homo sapiens, UniProt Q04609); details: read-out: Km of NAALADase for NAAG; NAAG as substrate; cited from earlier work
Chain of NAALADase (Homo sapiens, UniProt Q04609) (Q04609 whole entry): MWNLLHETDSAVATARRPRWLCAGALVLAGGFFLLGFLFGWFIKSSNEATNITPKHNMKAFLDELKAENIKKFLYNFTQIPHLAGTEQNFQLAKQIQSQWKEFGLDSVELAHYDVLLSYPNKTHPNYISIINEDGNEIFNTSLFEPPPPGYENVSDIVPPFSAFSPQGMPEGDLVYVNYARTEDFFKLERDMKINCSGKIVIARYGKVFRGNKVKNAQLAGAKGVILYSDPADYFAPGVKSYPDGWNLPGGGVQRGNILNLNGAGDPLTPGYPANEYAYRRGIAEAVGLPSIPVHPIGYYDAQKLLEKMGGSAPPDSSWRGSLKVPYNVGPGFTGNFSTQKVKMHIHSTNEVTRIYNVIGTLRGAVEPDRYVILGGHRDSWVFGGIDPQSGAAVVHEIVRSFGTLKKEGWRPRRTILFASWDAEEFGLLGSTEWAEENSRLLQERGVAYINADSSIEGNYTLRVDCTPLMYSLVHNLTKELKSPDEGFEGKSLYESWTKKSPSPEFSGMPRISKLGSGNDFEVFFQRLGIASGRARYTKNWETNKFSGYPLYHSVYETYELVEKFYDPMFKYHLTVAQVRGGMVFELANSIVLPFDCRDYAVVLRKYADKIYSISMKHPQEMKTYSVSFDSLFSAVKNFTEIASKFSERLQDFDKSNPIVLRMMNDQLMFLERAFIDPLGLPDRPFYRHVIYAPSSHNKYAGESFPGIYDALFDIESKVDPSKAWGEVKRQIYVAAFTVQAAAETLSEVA

Chain of NAALADase (Rattus norvegicus, UniProt P70627) (P70627 whole entry): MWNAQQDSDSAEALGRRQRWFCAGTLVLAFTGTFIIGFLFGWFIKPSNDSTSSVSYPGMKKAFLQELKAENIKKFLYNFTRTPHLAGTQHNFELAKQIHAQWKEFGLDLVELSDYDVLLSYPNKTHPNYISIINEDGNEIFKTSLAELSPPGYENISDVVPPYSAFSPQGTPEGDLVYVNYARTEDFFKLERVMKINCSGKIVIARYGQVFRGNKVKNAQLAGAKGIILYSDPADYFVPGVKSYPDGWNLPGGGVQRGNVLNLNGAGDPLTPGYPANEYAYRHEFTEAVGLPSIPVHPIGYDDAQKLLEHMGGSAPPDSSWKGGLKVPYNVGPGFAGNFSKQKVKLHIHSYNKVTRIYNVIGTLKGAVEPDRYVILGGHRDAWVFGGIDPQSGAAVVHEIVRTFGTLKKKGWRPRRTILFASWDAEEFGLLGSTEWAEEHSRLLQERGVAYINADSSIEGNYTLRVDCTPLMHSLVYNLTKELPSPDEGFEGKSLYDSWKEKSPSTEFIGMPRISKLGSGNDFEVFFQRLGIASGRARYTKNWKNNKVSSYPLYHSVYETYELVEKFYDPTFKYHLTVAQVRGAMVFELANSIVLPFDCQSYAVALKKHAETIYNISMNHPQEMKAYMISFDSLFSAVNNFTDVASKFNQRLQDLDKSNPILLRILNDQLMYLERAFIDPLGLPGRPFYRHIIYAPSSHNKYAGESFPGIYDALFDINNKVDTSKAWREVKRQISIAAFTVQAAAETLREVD

| SMILES | NAALADase inhibiting activity (in words, by comparison) (NAALADase [1]) | % Toxicity (cortical cell cultures) [%] | Km (NAALADase [2]) [µM] |
| --- | --- | --- | --- |
| O=C(O)CC(CP(=O)(O)O)C(=O)O (stereo not shown) [2-(phosphonomethyl)succinic acid] | much lower NAALADase inhibiting activity |  |  |
| O=C(O)CCC(CP(=O)(O)CCC(=O)O)C(=O)O (stereo not shown) [2-[[2-carboxyethyl)hydroxyphosphinol]methyl]pentanedioic acid] | lower NAALADase inhibiting activity |  |  |
| CC(=O)N[C@@H](CC(=O)O)C(=O)N[C@@H](CCC(=O)O)C(=O)O [NAAG, N-acetyl-aspartyl-glutamate] (Ac-Asp-Glu-OH) |  | 3.51 | 0.54 |

— patent US20010044459A1, “Hydroxamic acid derivatives” (priority 1997, published 2001)
